Series [1] relates to GTPase KRas (Homo sapiens), P01116 [UNDEFINED MUTATION]. As to the kind of experiment: Inhibition of KRas mutant in human HCT116 cells […] assessed as cell viability by measuring ATP at 2 uM relative to control. The class given is cell-based.
The test system is the same in series [2]. As to the kind of experiment: Inhibition of KRas mutant in human SW480 cells assessed as cell viability by measuring ATP at 2 uM relative to control. The class given is cell-based.
The target of series [3] is Apolipoprotein C-III (Homo sapiens) (UniProt P02656). As to the kind of experiment: Inhibition of human APOC3 at 40 uM relative to control.
Chain of Apolipoprotein C-III (Homo sapiens) (P02656 whole entry): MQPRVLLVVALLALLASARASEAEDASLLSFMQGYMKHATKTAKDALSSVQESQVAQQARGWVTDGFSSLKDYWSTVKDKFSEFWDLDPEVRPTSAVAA
Series [4] relates to CYP1A1. As to the kind of experiment: Selectivity index, ratio of IC50 of cytotoxicity against CHO cells to IC50 for bioactivation in CYP1A1 (unknown origin) transfected CHO cells assessed as CYP1A1-mediated drug activation by measuring reduction in cell viability. Particulars: hamster, CHO cells and CYP1A1-transfected CHO cells; read-out: Ratio IC50. The format is cell-based.

In series [5] the test system is GTPase KRas (Homo sapiens), P01116 [UNDEFINED MUTATION]. As to the kind of experiment: Inhibition of KRas mutant in human DLD1 cells assessed as cell viability by measuring ATP at 0.2 uM relative to control. The format is cell-based.
The test system is the same in series [6]. Nature of the series: Inhibition of KRas mutant in human HCT116 cells […] assessed as cell viability by measuring ATP at 0.2 uM relative to control. The class given is cell-based.
Series [7] is described as follows: Activation of wnt pathway in mouse C2C12 cells assessed as increase in alkaline phosphatase activity. The format is cell-based.
Series [8] deals with HeLa. Nature of the series: Cell cycle arrest in human HeLa cells assessed as effect on mitotic index incubated for 21 hrs by propidium iodide based flow cytometry. The format is functional.
The target in series [9] is Microtubule-associated protein tau (Homo sapiens) (UniProt P10636). Nature of the series: Inhibition of human Tau at 40 uM relative to control.
Chain of Microtubule-associated protein tau (Homo sapiens) (P10636 whole entry): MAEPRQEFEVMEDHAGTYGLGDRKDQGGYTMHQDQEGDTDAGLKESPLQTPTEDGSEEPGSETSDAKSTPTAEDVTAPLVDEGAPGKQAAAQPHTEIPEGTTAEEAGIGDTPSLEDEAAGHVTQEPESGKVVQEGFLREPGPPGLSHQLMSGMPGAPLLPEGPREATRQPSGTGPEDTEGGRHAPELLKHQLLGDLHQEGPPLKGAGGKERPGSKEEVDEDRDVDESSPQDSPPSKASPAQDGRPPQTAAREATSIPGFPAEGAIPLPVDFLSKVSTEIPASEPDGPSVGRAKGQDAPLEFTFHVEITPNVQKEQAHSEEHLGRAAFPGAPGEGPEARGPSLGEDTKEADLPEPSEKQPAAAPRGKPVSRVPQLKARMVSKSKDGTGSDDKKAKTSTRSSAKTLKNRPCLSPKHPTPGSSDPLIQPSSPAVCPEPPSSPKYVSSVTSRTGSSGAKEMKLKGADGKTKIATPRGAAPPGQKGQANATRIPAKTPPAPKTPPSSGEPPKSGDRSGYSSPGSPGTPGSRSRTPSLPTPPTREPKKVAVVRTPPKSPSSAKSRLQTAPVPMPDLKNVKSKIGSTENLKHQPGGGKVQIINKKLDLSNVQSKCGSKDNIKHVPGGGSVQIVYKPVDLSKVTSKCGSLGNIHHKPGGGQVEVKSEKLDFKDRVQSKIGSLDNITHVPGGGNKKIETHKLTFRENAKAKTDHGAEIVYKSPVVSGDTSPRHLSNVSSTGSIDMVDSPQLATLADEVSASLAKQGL
The subject of series [10] is GTPase KRas (Homo sapiens), P01116 [UNDEFINED MUTATION]. Nature of the series: Inhibition of KRas mutant in human HCT116 cells assessed as cell viability by measuring ATP at 20 uM relative to control. The format is cell-based.
The test system of series [11] is HT-29. As to the kind of experiment: Selectivity index, ratio of IC50 of antiproliferative activity against human HT-29 cells in normoxia to IC50 of antiproliferative activity against human HT-29 cells in hypoxia condition. The format is functional.
For series [12], the system named is HeLa. As to the kind of experiment: Cell cycle arrest in human HeLa cells incubated for 21 hrs by propidium iodide based flow cytometry. The format is functional.
The test system of series [13] is GTPase KRas (Homo sapiens), P01116 [UNDEFINED MUTATION]. As to the kind of experiment: Inhibition of KRas mutant in human HCT116 cells assessed as cell viability by measuring ATP. The class given is cell-based.
The test system is the same in series [14]. As to the kind of experiment: Inhibition of KRas mutant in human DLD1 cells assessed as cell viability by measuring ATP at 20 uM relative to control. The format is cell-based.
Series [15] deals with HT-29. As to the kind of experiment: Antiproliferative activity against human HT-29 cells assessed as reduction in cell viability incubated for 24 hrs by MTT assay. The format is functional, cell-based. Particulars: HT-29, 24 h.
Series [16] concerns HeLa. Nature of the series: Cell cycle arrest in human HeLa cells assessed as effect on 4N stage incubated for 21 hrs by propidium iodide based flow cytometry. The class given is functional.
Series [17] relates to HeLa. Nature of the series: Cell cycle arrest in human HeLa cells assessed as effect on 2N stage incubated for 21 hrs by propidium iodide based flow cytometry. The class given is functional.
Series [18] concerns GTPase KRas (Homo sapiens), P01116 [UNDEFINED MUTATION]. As to the kind of experiment: Inhibition of KRas mutant in human HCT116 cells […] assessed as cell viability by measuring ATP at 20 uM relative to control. The class given is cell-based.
Series [19] shares this test system. As to the kind of experiment: Inhibition of KRas mutant in human HCT116 cells assessed as cell viability by measuring ATP at 0.2 uM relative to control. The format is cell-based.
Series [20] concerns the target Sodium channel protein type 9 subunit alpha (Homo sapiens) (UniProt Q15858). Nature of the series: Inhibition of human Nav1.7 at 40 uM relative to control.
The subject of series [21] is GTPase KRas (Homo sapiens), P01116 [UNDEFINED MUTATION]. As to the kind of experiment: Inhibition of KRas mutant in human SW480 cells assessed as cell viability by measuring ATP at 20 uM relative to control. The class given is cell-based.
The subject of series [22] is HT-29. As to the kind of experiment: Antiproliferative activity against human HT-29 cells assessed as reduction in cell viability incubated for 24 hrs in hypoxia condition by MTT assay. The format is functional, cell-based. The note with it: HT-29, 24 h.
The subject of series [23] is GTPase KRas (Homo sapiens), P01116 [UNDEFINED MUTATION]. As to the kind of experiment: Inhibition of KRas mutant in human SW480 cells assessed as cell viability by measuring ATP. The format is cell-based.
Series [24] has as its system HeLa. As to the kind of experiment: Cell cycle arrest in human HeLa cells assessed as effect on S phase incubated for 21 hrs by propidium iodide based flow cytometry. The class given is functional.
Series [25] is described as follows: Activation of wnt pathway in mouse C2C12 cells assessed as increase in beta-catenin activity. The format is cell-based.
For series [26], the target named is T1, Angiopoietin-like protein 8 (Homo sapiens) (UniProt Q6UXH0).
T1 sequence (whole entry): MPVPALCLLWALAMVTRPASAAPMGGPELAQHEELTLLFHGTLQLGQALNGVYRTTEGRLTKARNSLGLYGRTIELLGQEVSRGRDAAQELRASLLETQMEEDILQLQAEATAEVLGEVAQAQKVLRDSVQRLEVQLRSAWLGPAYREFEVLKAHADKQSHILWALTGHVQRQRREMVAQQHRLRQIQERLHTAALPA
Nature of the series: Inhibition of human Angptl8 at 40 uM relative to control.

In series [27] the test system is GTPase KRas (Homo sapiens), P01116 [UNDEFINED MUTATION]. As to the kind of experiment: Inhibition of KRas mutant in human HCT116 cells […] assessed as cell viability by measuring ATP. The format is cell-based.
The test system is the same in series [28]. As to the kind of experiment: Inhibition of KRas mutant in human SW480 cells assessed as cell viability by measuring ATP at 0.2 uM relative to control. The format is cell-based.
The test system is the same in series [29]. As to the kind of experiment: Inhibition of KRas mutant in human DLD1 cells assessed as cell viability by measuring ATP at 2 uM relative to control. The format is cell-based.
Series [30] has the same test system. As to the kind of experiment: Inhibition of KRas mutant in human HCT116 cells assessed as cell viability by measuring ATP at 2 uM relative to control. The class given is cell-based.
The test system is the same in series [31]. As to the kind of experiment: Inhibition of KRas mutant in human DLD1 cells assessed as cell viability by measuring ATP. The class given is cell-based.
Series [32] relates to HeLa. As to the kind of experiment: Cell cycle arrest in human HeLa cells assessed as effect on G1 phase incubated for 21 hrs by propidium iodide based flow cytometry. The format is functional.
Series [33] has as its target Proprotein convertase subtilisin/kexin type 9 (Homo sapiens) (UniProt Q8NBP7). Nature of the series: Inhibition of human PCSK9 at 40 uM relative to control.
Series [34] deals with CHO. As to the kind of experiment: Cytotoxicity against CHO cells assessed as reduction in cell viability. The format is cell-based. The note with it: Cricetulus griseus.

SMILES strings stand for the structures. Some results are limits rather than exact numbers.

Experimental findings from ChEMBL document CHEMBL4312009, “Multigram scale synthesis of polycyclic lactones and evaluation of antitumor and other biological properties” (Eur J Med Chem, 2020) are described below.

Chain of GTPase KRas (Homo sapiens), P01116 [UNDEFINED MUTATION] (P01116 whole entry, looked up, stated change not applied): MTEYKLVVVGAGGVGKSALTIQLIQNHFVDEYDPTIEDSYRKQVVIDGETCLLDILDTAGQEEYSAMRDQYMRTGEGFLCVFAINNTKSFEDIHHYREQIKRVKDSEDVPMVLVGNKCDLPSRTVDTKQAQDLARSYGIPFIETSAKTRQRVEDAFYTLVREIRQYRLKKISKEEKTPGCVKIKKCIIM
Chain of Proprotein convertase subtilisin/kexin type 9 (Homo sapiens) (Q8NBP7 31-152 limits assumed): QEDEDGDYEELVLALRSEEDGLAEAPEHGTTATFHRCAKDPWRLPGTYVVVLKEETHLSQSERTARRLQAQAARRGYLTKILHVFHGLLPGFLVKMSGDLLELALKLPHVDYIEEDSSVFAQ
Chain of Proprotein convertase subtilisin/kexin type 9 (Homo sapiens) (Q8NBP7 153-692 limits assumed): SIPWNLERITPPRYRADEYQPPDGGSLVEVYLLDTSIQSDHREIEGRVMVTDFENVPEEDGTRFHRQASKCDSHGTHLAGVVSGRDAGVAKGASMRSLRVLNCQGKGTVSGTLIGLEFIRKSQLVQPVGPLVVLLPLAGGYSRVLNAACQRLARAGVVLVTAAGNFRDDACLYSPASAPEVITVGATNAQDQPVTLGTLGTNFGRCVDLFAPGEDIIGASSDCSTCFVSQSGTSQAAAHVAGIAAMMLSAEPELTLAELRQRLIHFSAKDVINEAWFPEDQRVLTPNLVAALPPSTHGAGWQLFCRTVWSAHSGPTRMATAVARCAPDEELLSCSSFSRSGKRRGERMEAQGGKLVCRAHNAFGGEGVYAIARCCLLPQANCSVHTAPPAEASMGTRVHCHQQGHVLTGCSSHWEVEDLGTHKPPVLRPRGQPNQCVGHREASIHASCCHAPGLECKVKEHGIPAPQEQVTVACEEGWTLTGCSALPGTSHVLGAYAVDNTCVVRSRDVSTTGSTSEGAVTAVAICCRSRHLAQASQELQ
Chain of Sodium channel protein type 9 subunit alpha (Homo sapiens) (Q15858 whole entry, looked up): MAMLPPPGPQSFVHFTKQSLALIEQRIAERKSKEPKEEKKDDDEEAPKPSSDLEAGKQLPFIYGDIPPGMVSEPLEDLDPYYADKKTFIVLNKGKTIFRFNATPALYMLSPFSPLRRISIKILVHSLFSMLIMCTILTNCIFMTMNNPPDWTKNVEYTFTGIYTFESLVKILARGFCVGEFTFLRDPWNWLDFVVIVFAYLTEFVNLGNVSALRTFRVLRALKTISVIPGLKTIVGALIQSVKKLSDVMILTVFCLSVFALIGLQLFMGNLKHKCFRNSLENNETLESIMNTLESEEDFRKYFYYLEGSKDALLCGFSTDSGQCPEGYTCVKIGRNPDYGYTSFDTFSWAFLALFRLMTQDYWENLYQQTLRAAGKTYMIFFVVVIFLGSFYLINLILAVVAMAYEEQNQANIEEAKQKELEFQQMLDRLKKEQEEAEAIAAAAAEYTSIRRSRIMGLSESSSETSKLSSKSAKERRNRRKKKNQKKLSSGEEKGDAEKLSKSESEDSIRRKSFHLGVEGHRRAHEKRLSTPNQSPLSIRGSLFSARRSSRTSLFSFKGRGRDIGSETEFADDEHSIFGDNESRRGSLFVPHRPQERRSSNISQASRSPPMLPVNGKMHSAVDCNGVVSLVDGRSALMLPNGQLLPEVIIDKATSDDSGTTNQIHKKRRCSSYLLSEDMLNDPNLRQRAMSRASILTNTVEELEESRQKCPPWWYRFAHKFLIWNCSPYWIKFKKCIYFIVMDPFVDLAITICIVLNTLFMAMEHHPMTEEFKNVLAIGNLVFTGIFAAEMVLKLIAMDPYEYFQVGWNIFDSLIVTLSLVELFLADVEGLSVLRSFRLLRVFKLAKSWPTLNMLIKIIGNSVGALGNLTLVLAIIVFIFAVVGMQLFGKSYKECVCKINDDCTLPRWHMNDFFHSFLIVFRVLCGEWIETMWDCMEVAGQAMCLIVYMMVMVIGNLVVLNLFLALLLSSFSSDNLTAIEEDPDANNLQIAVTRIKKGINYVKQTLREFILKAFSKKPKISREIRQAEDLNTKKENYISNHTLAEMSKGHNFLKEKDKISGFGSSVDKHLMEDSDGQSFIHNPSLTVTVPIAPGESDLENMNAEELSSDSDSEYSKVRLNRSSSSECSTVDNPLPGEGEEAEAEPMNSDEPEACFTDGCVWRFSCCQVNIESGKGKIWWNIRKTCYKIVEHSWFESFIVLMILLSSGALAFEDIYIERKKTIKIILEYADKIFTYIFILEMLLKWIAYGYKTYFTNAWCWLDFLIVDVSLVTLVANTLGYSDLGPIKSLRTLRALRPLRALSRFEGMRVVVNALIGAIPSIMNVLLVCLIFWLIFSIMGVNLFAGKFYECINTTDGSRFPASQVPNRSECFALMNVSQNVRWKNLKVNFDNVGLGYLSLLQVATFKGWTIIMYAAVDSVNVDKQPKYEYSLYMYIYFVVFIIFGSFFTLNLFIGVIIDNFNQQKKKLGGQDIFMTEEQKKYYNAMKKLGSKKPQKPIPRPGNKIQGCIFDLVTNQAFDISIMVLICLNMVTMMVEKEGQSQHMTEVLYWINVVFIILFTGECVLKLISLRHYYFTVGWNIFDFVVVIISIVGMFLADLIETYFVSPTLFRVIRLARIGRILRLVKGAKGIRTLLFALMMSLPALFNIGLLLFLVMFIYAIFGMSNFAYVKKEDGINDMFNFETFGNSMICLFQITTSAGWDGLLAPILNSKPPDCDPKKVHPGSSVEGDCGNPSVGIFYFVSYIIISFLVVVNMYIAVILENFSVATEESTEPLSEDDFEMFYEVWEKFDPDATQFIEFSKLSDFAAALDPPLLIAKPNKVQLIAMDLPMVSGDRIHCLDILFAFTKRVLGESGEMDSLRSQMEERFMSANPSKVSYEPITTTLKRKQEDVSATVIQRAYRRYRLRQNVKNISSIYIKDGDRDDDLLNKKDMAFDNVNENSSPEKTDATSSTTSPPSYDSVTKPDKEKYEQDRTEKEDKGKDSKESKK

With `CCCCc1c2c(c(C)c3c1C(=O)OC3)Oc1ccccc1O2`, the inhibition in series [1] worked out at 63%; in series [2], 73%; in [3], 89%; in [5], 17%; in series [6] it was 67%; in [9], 92%. The inhibition in series [10] is 78%; in [13], “Dose-dependent effect”; in series [14], 91%; in series [18], 80%; in [19], 5%; in [20], 76%. Moreover, the inhibition in series [21] is 138%; in series [23], “Dose-dependent effect”; in series [26], 93%; in series [27], “Dose-dependent effect”; in series [28], 17%; in [29] it was 65%. Further, the inhibition in series [30] is 66%; in [31], “Dose-dependent effect”; in series [33] it was 95%. In series [4], the selectivity ratio was 3.7. The EC50 in series [7] was 6.7 µM; in [8], 2.1 µM; in [16] it was 2 µM; in series [25] it was more than 20 µM; in [32], more than 10 µM. Further, the “Ratio IC50” value in [11] stood at 0.24. For the same compound, the IC50 in series [12] is 1.7 µM; in series [15] it was 1.73 µM; in [17], 2.2 µM; in [22], 7.33 µM; in series [24], more than 10 µM; in series [34], 1.48 µM.
In the case of `CCc1c2c(nc3ccc(OC(=O)N4CCC(N5CCCCC5)CC4)cc13)-c1cc3c(c(=O)n1C2)COC(=O)[C@]3(O)CC` [IRINOTECAN], in series [11], the “Ratio IC50” value is on record as 1.12. The results for the IC50 in [15] and in series [22] were 3.96 µM and 3.55 µM, respectively.
Turning to `Cc1c2ccncc2c(C)c2c1[nH]c1ccccc12` [ELLIPTECINE], in [4], the selectivity ratio turned out to be 15.6. For the same compound, the IC50 in series [34] amounted to 0.02 µM.
With `CCCCCCc1c2c(c(C)c3c1C(=O)OC3)Oc1ccccc1O2`, the inhibition worked out at 69% in series [1]; 58% in [2]; 75% in [3]; 14% in [5]; 52% in series [6]; 77% in series [9]. The inhibition in [10] was 91%; in series [13], “Dose-dependent effect”; in series [14], 112%; in [18], 62%; in [19] it was 12%; in [21] it was 86%. Also, the inhibition result is “Dose-dependent effect” in [23]; 86% in series [26]; “Dose-dependent effect” in series [27]; 21% in series [28]; 50% in series [29]; 60% in series [30]. Further, the inhibition result is “Dose-dependent effect” in [31] and 75% in series [33]. In addition, the selectivity ratio in series [4] worked out at 0.6. In addition, the EC50 in series [7] was 7.6 µM; in [8] it was more than 10 µM; in [16], 2 µM; in series [25], more than 20 µM; in series [32] it was more than 10 µM. In series [11], the “Ratio IC50” value stood at 0.15. The IC50 in [12] was 1.8 µM; in [15], 1.33 µM; in series [17] it was 2.1 µM; in series [22], 8.93 µM; in series [24] it was more than 10 µM; in series [34], 1.52 µM.
Regarding `Cc1c2c(c(CCCCBr)c3c1Oc1ccccc1O3)C(=O)OC2`, the inhibition stood at 58% in series [1]; 62% in [2]; 67% in series [3]; 30% in series [5]; 15% in series [6]; 56% in [9]. The inhibition in series [10] was 76%; in series [13], “Dose-dependent effect”; in [14] it was 76%; in series [18], 53%; in [19], 33%; in series [20], 0%. Besides, the inhibition was 63% in series [21]; “Dose-dependent effect” in [23]; 67% in series [26]; “Dose-dependent effect” in series [27]; 7% in [28]; 45% in series [29]. Besides, the inhibition was 56% in series [30], “Dose-dependent effect” in series [31] and 35% in series [33]. Also, the EC50 in series [7] was 8.2 µM; in series [8] it was 1.3 µM; in series [16], 1.4 µM; in [25], more than 20 µM; in series [32], more than 10 µM. For the same compound, the IC50 in [12] is 0.6 µM; in series [17], 1.5 µM; in [24] it was more than 10 µM.
